IC50 data for 17 compounds are collected here from US8969395B2, “Triterpenoid derivatives useful as antiproliferative agents” (Universidade de Coimbra, priority 2009, dated 2015).

What all share (assay type): cell-based
Holding throughout (conditions): 72 h, mean ±SD

For assay [1], the system named is HeLa (human cervical adenocarcinoma). The experiment in a line: Cytotoxic activity, MTT assay, HeLa. Here is the method:
(§1) The cytotoxic of compounds of formulas (I) and (II) 14-50 was assessed towards human cancer (HepG2, HeLa and Jurkat) cell lines (Table 3 below). Compounds presented on Table 4 were also tested against a non-tumoral liver cell line (Chang liver). The cell viability of HeLa, HepG2 and Chang liver cells was determined by the MTT assay. Briefly, exponentially growing cells were plated in 96-well plates at a density of 1×10^3, 8×10^3 and 5×10^3 cells/well respectively and incubated for 24 h before treatment. The grown medium was replaced with one contained the tested compounds dissolved in DMSO (final DMSO concentration <0.1%) at different concentrations, in triplicate wells, and cells were incubated for 72 h. After incubation with the compounds, the medium was removed and MTT solution (0.5 mg/ml, 100 μl) was added to each well and the plates were incubated again for 1 h. DMSO (100 μl) was then added to dissolve the formazan crystals and the plates were immediately read at 550 nm on an ELISA plate reader (Tecan Sunrise MR20-301, TECAN, Austria). For the Jurkat cells, the cell viability was determined by the XTT assay. Briefly, exponentially growing cells were plated in 96-well plates at a density of 5.5×10^3 cells/well, treated with different concentrations of compounds in triplicate and incubated for 72 h. After incubation with the compounds the XTT labeling mixture (100 μl) were added to each of the wells and after a 4 h incubation period the plates were read at 450 nm on an ELISA plate reader. […] Known for its cytotoxic activity, betulinic acid 2 was used as a positive control in this experimentation.

For another assay, the system named is Jurkat (human leukemia). The experiment in a line: Cytotoxic activity, XTT assay, Jurkat. The procedure: as §1, with “experimentation. […] All the IC50 results represent an average of a minimum of three experiments and were expressed as means±standard deviation (SD).” for “experimentation.”
Assay [2] relates to HepG2 (human hepatocellular carcinoma). The experiment in a line: Cytotoxic activity, MTT assay, HepG2. Here is the method: as §1, with “experimentation. […] All the IC50 results represent an average of a minimum of three experiments and were expressed as means±standard deviation (SD).” for “experimentation.”
Assay [3] deals with Chang liver (human normal liver cells). The experiment in a line: Cytotoxic activity against non-tumoral cell line, MTT assay. The procedure: as §1, with “experimentation. […] All the IC50 results represent an average of a minimum of three experiments and were expressed as means±standard deviation (SD).” for “experimentation.”

Take `C=C(C)[C@@H]1CC[C@]2(COC(=O)n3cncn3)CC[C@]3(C)[C@H](CC[C@@H]4[C@@]5(C)CC[C@H](O)C(C)(C)[C@@H]5CC[C@]43C)[C@@H]12` [Compound 16, 3β-hydroxy-lup-20(29)-en-28-yl-1H-triazole-1-carboxylate]: half-maximal inhibition in assay [1] (IC50) was put at 15.2 ± 2.1 µM.
As to `C=C(C)[C@@H]1CC[C@]2(COC(=O)n3ccnc3C)CC[C@]3(C)[C@H](CC[C@@H]4[C@@]5(C)CC[C@H](OC(=O)n6ccnc6C)C(C)(C)[C@@H]5CC[C@]43C)[C@@H]12` [Compound 18, Lup-20(29)-en-3β,28-di-yl-(2′-methyl-1H-imidazole-1-carboxylate)], the IC50 (with Jurkat (human leukemia); in assay [1]; in assay [2]) was > 30 µM throughout.
In the case of `C=C(C)C1CCC2(COC(=O)n3cncn3)CCC3(C)C(CCC4C5(C)CCC(OC(=O)n6cncn6)C(C)(C)C5CCC43C)C12` (stereo not drawn) [Compound 19, Lup-20(29)-en-3β,28-di-yl-(1H-triazole-1-carboxylate)], the IC50 in assay [1] was > 30 µM.
Still for that read-out and setting: the same measure for `C=C(C)[C@@H]1CC[C@]2(CO)CC[C@]3(C)[C@H](CC[C@@H]4[C@@]5(C)CC[C@H](OC(=O)n6cncn6)C(C)(C)[C@@H]5CC[C@]43C)[C@@H]12` [Compound 21, 28-hydroxy-lup-20(29)-en-3β-yl-1H-triazole-1-carboxylate]: 11.3 ± 1.9 µM.
In the case of `C=C(C)[C@@H]1CC[C@]2(COC(=O)n3ccnc3)CC[C@]3(C)[C@H](CC[C@@H]4[C@@]5(C)CC[C@H](OC(C)=O)C(C)(C)[C@@H]5CC[C@]43C)[C@@H]12` [Compound 22, 3β-acetoxy-lup-20(29)-en-28-yl-1H-imidazole-1-carboxylate], the IC50 (with Jurkat (human leukemia); in assay [1]; in assay [2]) was > 30 µM in each case.
Turning to `C=C(C)[C@@H]1CC[C@]2(COC(=O)n3ccnc3C)CC[C@]3(C)[C@H](CC[C@@H]4[C@@]5(C)CC[C@H](OC(C)=O)C(C)(C)[C@@H]5CC[C@]43C)[C@@H]12` [Compound 23, 3β-acetoxy-lup-20(29)-en-28-yl-2′-methyl-1H-imidazole-1-carboxylate], the IC50 (in the assay with Jurkat (human leukemia); in assay [1]; in assay [2]) was > 30 µM each time.
`C=C(C)[C@@H]1CC[C@]2(COC(=O)n3cncn3)CC[C@]3(C)[C@H](CC[C@@H]4[C@@]5(C)CC[C@H](OC(C)=O)C(C)(C)[C@@H]5CC[C@]43C)[C@@H]12` [Compound 24, 3β-acetoxy-lup-20(29)-en-28-yl-1H-triazole-1-carboxylate]: half-maximal inhibition in assay [1] (IC50) required 23.2 ± 2.1 µM.
Regarding `C=C(C)[C@@H]1CC[C@]2(COC(C)=O)CC[C@]3(C)[C@H](CC[C@@H]4[C@@]5(C)CC[C@H](OC(=O)n6ccnc6)C(C)(C)[C@@H]5CC[C@]43C)[C@@H]12` [Compound 25, 28-acetoxy-lup-20(29)-en-3β-yl-1H-imidazole-1-carboxylate], the half-inhibitory concentration (IC50) (in the assay with Jurkat (human leukemia); in assay [1]; in assay [2]) was > 30 µM in each case.
With `C=C(C)[C@@H]1CC[C@]2(COC(C)=O)CC[C@]3(C)[C@H](CC[C@@H]4[C@@]5(C)CC[C@H](OC(=O)n6ccnc6C)C(C)(C)[C@@H]5CC[C@]43C)[C@@H]12` [Compound 26, 28-acetoxy-lup-20(29)-en-3β-yl-2′-methyl-1H-imidazole-1-carboxylate], the IC50 (in the assay on Jurkat (human leukemia); in assay [1]; in assay [2]) was > 30 µM throughout.
On to `C=C(C)C1CCC2(COC(C)=O)CCC3(C)C(CCC4C5(C)CCC(OC(=O)n6cncn6)C(C)(C)C5CCC43C)C12` (stereo not drawn) [Compound 27, 28-acetoxy-lup-20(29)-en-3β-yl-1H-triazole-1-carboxylate], for which the IC50 in assay [1] was > 30 µM.
On the same count and under the same terms, under `C=C(C)C1CCC2(C(=O)n3cncn3)CCC3(C)C(CCC4C5(C)CCC(OC(=O)n6cncn6)C(C)(C)C5CCC43C)C12` (stereo not drawn) [Compound 32, 28-(1H-triazole-1-yl)-28-oxo-lup-20(29)-en-3β-yl-1H-triazole-1-carboxylate] stands 14.5 ± 3.2 µM.
For the compound `C=C(C)[C@@H]1CC[C@]2(C(=O)OC)CC[C@]3(C)[C@H](CC[C@@H]4[C@@]5(C)CC[C@H](OC(=O)n6ccnc6)C(C)(C)[C@@H]5CC[C@]43C)[C@@H]12` [Compound 33, Methyl 3β-(1H-imidazole-1-carbonyloxy)-lup-20(29)-en-28-oate], the IC50 in the assay with Jurkat (human leukemia) is 9.9 ± 0.6 µM; in assay [1], 8.2 ± 0.5 µM; in assay [2] it was 4.3 ± 0.1 µM; in assay [3] it was 73.9 ± 3.6 µM.
Turning to `C=C(COC)[C@@H]1CC[C@]2(COC(=O)n3cncn3)CC[C@]3(C)[C@H](CC[C@@H]4[C@@]5(C)CC[C@H](O)C(C)(C)[C@@H]5CC[C@]43C)[C@@H]12` [Compound 37, 3β-hydroxy-30-methoxylup-20(29)-en-28-yl-1H-triazole-1-carboxylate], in assay [1], half-maximal inhibition (IC50) was put at 13.8 ± 2.3 µM.
For the compound `C=C(COC)[C@@H]1CC[C@]2(COC(=O)n3ccnc3C)CC[C@]3(C)[C@H](CC[C@@H]4[C@@]5(C)CC[C@H](OC(=O)n6ccnc6C)C(C)(C)[C@@H]5CC[C@]43C)[C@@H]12` [Compound 39, 30-methoxylup-20(29)-en-3β,28-di-yl-(2′-methyl-1H-imidazole-1-carboxylate)], the IC50 is > 30 µM in the assay with Jurkat (human leukemia), 13.4 ± 0.6 µM in assay [1] and 28.2 ± 2.5 µM in assay [2].
For the compound `C=C(COC)C1CCC2(COC(=O)n3cncn3)CCC3(C)C(CCC4C5(C)CCC(OC(=O)n6cncn6)C(C)(C)C5CCC43C)C12` (stereo not drawn) [Compound 40, 30-methoxylup-20(29)-en-3β,28-di-yl-(1H-triazole-1-carboxylate)], in assay [1], the half-maximal inhibitory concentration (IC50) was > 30 µM.
Regarding `C=C(C)[C@@H]1CC[C@]2(C(=O)n3ccnc3)CC[C@]3(C)[C@H](CC[C@@H]4[C@@]5(C)C=C(O)C(=O)C(C)(C)[C@@H]5CC[C@]43C)[C@@H]12` [Compound 48, 2-hydroxy-28-(1H-imidazol-1-yl)-lup-1,20(29)-dien-3,28-dione], the IC50 in the assay on Jurkat (human leukemia) turned out to be 7 ± 1.6 µM; in assay [1], 4.6 ± 0.7 µM; in assay [2], 6.5 ± 0.4 µM; in assay [3], 62.8 ± 10.3 µM.
The like results for `C=C(C)[C@@H]1CC[C@]2(C(=O)n3ccnc3)CC[C@]3(C)[C@H](CC[C@@H]4[C@@]5(C)C=C(OC(=O)n6ccnc6)C(=O)C(C)(C)[C@@H]5CC[C@]43C)[C@@H]12` [Compound 49, 2-(1H-imidazole-1-carbonyloxy)-28-(1H-imidazol-1-yl)-lup-1,20(29)-dien-3,28-dione] were, in that order, 8.1 ± 0.6 µM, 3.9 ± 0.3 µM, 4 ± 0.3 µM and 71.6 ± 4.9 µM.
